The results in this text go back to ChEMBL document CHEMBL3232781, “Fluorinated benzophenone derivatives: balanced multipotent agents for Alzheimer's disease” (Eur J Med Chem, 2014).

The test system of series [1] is SH-SY5Y. In words: Antioxidant activity in human SH-SY5Y cells assessed as inhibition of amyloid beta (25 to 35)-induced intracellular ROS formation at 3 to 5 uM after 3 hrs by dihydroethidium-based fluorescence microscopic analysis relative to control. It counts as functional.
Series [2] deals with Beta-secretase 1 (Homo sapiens) (UniProt P56817). In words: Inhibition of human recombinant BACE-1 using M-2420 as substrate at 3 uM incubated for 1 hr prior to substrate addition measured after 15 mins by FRET assay relative to control.
The test system of series [3] is SH-SY5Y. In words: Neurotoxicity in human SH-SY5Y cells assessed as decrease in cell viability at 10 to 50 uM after 24 hrs by MTT assay. It counts as toxicity, cell-based. Background: Formazan colour is commonly taken as a measure of viable cells.
In series [4] the target is Acetylcholinesterase (Homo sapiens, UniProt P22303). In words: Inhibition of human recombinant AChE using acetylthiocholine iodide as substrate preincubated for 20 mins by Ellman's method. On the technique in general: In Ellman's method for cholinesterases, released thiocholine reacts with DTNB.
The test system of series [5] is SH-SY5Y. Put plainly: Antioxidant activity in human SH-SY5Y cells assessed as inhibition of t-BuOOH-induced intracellular ROS formation at 3 to 5 uM after 30 mins by dihydroethidium-based spectrofluorometric analysis. It is filed as functional, cell-based.
The target of series [6] is Beta-secretase 1 (Homo sapiens) (UniProt P56817). In words: Inhibition of human recombinant BACE-1 using M-2420 as substrate up to 4 uM incubated for 1 hr prior to substrate addition measured after 15 mins by FRET assay.
Series [7] relates to SH-SY5Y. In words: Antioxidant activity in human SH-SY5Y cells assessed as inhibition of t-BuOOH-induced intracellular ROS formation at 500 uM after 30 mins by dihydroethidium-based spectrofluorometric analysis relative to control. It counts as functional. Particulars: 0.5 h.
Series [8] relates to SH-SY5Y. In words: Antioxidant activity in human SH-SY5Y cells assessed as inhibition of amyloid beta (25 to 35)-induced intracellular ROS formation at 500 uM after 3 hrs by dihydroethidium-based fluorescence microscopic analysis relative to control. It is filed as functional.
For series [9], the target named is Beta-secretase 1 (Homo sapiens) (UniProt P56817). In words: Inhibition of human recombinant BACE-1 using M-2420 as substrate at 5 uM incubated for 1 hr prior to substrate addition measured after 15 mins by FRET assay relative to control.
Series [10] has the same target. Put plainly: Inhibition of human recombinant BACE-1 using M-2420 as substrate at 3.38 uM incubated for 1 hr prior to substrate addition measured after 15 mins by FRET assay relative to control.

SMILES strings stand for the structures. pIC50: −log10 of the molar value. Activity calls are given as the source filed them. No cut-off for these calls is given here.

Sequence of Beta-secretase 1 (Homo sapiens) (P56817 whole entry): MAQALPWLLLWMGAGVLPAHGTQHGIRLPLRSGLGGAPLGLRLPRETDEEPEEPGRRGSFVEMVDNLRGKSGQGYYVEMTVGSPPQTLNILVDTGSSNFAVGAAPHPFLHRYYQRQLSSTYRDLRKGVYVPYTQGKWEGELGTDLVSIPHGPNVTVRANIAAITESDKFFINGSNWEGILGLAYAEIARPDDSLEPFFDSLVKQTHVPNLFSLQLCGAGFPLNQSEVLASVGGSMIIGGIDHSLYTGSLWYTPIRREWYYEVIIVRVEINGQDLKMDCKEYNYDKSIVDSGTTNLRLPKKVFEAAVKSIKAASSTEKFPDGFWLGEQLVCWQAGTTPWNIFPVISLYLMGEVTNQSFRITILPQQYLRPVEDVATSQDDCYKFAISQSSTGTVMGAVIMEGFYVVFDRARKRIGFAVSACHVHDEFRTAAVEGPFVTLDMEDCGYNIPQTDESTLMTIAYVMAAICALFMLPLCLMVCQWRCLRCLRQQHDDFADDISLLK
Sequence of Acetylcholinesterase (P22303 whole entry): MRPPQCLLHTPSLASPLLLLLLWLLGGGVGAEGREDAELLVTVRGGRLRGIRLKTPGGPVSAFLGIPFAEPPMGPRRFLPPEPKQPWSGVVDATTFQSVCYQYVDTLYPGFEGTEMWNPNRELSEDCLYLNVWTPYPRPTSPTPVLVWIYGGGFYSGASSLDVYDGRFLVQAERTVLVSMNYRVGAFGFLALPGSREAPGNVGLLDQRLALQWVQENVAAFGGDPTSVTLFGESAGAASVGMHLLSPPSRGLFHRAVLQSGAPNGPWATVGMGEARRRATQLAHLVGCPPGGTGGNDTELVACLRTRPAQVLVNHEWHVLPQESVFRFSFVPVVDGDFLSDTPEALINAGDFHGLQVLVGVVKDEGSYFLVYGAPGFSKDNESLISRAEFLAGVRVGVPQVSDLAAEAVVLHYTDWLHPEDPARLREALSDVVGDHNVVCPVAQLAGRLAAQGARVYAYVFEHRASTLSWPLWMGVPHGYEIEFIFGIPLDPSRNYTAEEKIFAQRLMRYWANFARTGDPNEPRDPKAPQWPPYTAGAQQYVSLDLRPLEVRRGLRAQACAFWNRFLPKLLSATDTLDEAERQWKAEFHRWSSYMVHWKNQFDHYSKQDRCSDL

Usually inhibition stands for the percentage by which the read-out fell short of the control. In general, pIC50 refers to the IC50 on a negative log10 scale, so that one unit is a factor of ten. For the compound `O=C(c1ccc(CN2CCC(CCO)CC2)cc1)c1ccc(O)c(F)c1`, the Imax in series [1] is reported as 30%. Besides, in series [2], the inhibition worked out at 58.7%. Also, the Activity result in [3] is listed as “Non-toxic”. The pIC50 in series [4] was 5.63. Besides, the inhibition result in series [5] is “Active”.

`CN(Cc1ccc(C(=O)c2ccc(O)c(F)c2)cc1)C1CCCCC1`: the inhibition in series [2] was found to be 36.2%. In series [4], the inhibition entry was “inactive”.

Turning to `CN(Cc1ccccc1)Cc1ccc(C(=O)c2ccc(O)c(F)c2)cc1`, the Imax in series [1] was determined as 30%. Besides, the inhibition in series [2] was 40.8%. The Activity entry in series [3] is “Toxic”. Further, the pIC50 in series [4] is 5.44. Further, the inhibition entry in series [5] was “Active”.

Take `CN(Cc1ccccc1)Cc1ccc(C(=O)c2ccc(O)cc2)cc1`: the inhibition result in series [6] was “inactive”.

In the case of `CN(CCO)Cc1ccc(C(=O)c2ccc(O)c(F)c2)cc1`, the inhibition in series [2] is 46.7%. In addition, in [4], the inhibition entry is “inactive”.

For the compound `O=C(c1ccc(CN2CCN(c3ccccc3)CC2)cc1)c1ccc(O)c(F)c1`, the inhibition entry in [6] and in [4] was “inactive” in each case.

Take `O=C(c1ccc(CN2CCN(Cc3ccccc3)CC2)cc1)c1ccc(O)c(F)c1`: the inhibition result in series [6] and in series [4] was “inactive” in each case.

Regarding `CC(=O)N[C@@H](CS)C(=O)O` [ACETYLCYSTEINE], the inhibition at 500 µM in series [7] and in series [8] was 35% throughout.

For `COc1ccc(C(=O)c2ccc(CN(C)Cc3ccccc3)cc2)cc1`, in [6], the inhibition entry was “inactive”.

Take `CN1CCN(Cc2ccc(C(=O)c3ccc(O)c(F)c3)cc2)CC1`: the inhibition result in series [6] and in [4] was “inactive” each time.

Regarding `Cc1ccc(C(=O)c2ccc(O)c(F)c2)cc1`, the inhibition in series [2] came to 35.4%. For the same compound, the inhibition result in [4] was “inactive”.

Take `COc1ccc(C(=O)c2ccc(CN(C)Cc3ccccc3)cc2)cc1OC`: in [9], the inhibition stood at 20%.

On to `COc1ccc(C(=O)c2ccc(CN(C)Cc3ccccc3)cc2)cc1F`, for which the inhibition entry in series [1] and in series [5] was “inactive” each time. Moreover, the Activity entry in series [3] was “Non-toxic”. For the same compound, in series [10], the inhibition was 10.7%.

With `CN(Cc1ccc(C(=O)c2ccc(O)c(F)c2)cc1)Cc1cccc(O)c1`, the inhibition entry in series [6] and in series [4] was “inactive” each time.

`O=C(c1ccc(CN2CCC(O)CC2)cc1)c1ccc(O)c(F)c1`: the inhibition in [2] worked out at 32.8%. Besides, the inhibition entry in series [4] is “inactive”.

As for `CN(C)CCN(C)Cc1ccc(C(=O)c2ccc(O)c(F)c2)cc1`, the inhibition in series [2] came to 13.5%. The inhibition result in [4] is “inactive”.
